Patent US9585393B2, “Saflufenacil, flumioxazin, and 2,4-D weed control compositions and methods of use thereof” (Valent U.S.A., Corporation, priority 2014, dated 2017)

What was measured:
Yellow Nutsedge = assay: Field test, post emergence weed control: Yellow Nutsedge; type: in vivo, Cyperus esculentus; details: 12 DAT, MSO 1% v/v
Experimental: (§1) The following field test was conducted during spring in Mississippi. Sharpen® was used in the test as the source of saflufenacil. Valor® was used in the test as the source of flumioxazin. Roundup Ready soybeans (Glycine max) were used in the test as the crop plant. All of the treatments contained MSO concentrate oil at 1% v/v.
(§2) When the test began, the test plot had Horseweed that was 6 to 20 inches tall. Applications were administered at the concentrations as follows. Saflufenacil was administered at 0.011, 0.017 or 0.022 lb ai/acre (indicated in the table as “S” followed by the amount). Flumioxazin was administered at 0.064 lb ai/acre, and 2,4-D was administered at 0.5 lb ai/acre throughout the experiment. Three days after the treatment (3 DAT), soybeans were planted across the front of the plot. On 7 DAT, another pass of soybeans was planted across the front of the plot with a 30 inch planter. Each test was
(§3) On 11 DAT, readings were taken to determine the survival of Horseweed and Crabgrass. On 12 DAT, readings were taken to determine the survival of Palmer Amaranth, Broadleaf Signalgrass, Common Barnyardgrass, Yellow Nutsedge, and Eclipta. Survival ratings were taken by counting the number of alive and dead plants at the time of the reading. The pytotoxicity of each treatment was also evaluated by examining the soybeans at 11 and 12 DAT. All data was analyzed using Bartlett's test and with p value of […] for determining significance of the results. The Effect of Saflufenacil, Flumioxazin and 2,4-D on Weeds.”

Common Barnyardgrass = assay: Field test, post emergence weed control: Common Barnyardgrass; type: in vivo, Echinochloa crus-galli; details: 12 DAT, MSO 1% v/v
Experimental: as §1, §2, §3

Horseweed = assay: Field test, post emergence weed control: Horseweed; type: in vivo, Conyza Canadensis; details: for Effect on Weeds, Plants: Horseweed: 11 DAT, MSO 1% v/v; for control (Actual % Control) / % Alone: Horseweed; for control (Actual % Control): rounded Table 1 values, saflufenacil 0.011, flumioxazin 0.064, 2,4-D 0.5 lb ai/acre as present; for % Alone: synergy calculation, each component alone (saflufenacil 0.011, 2,4-D 0.5, flumioxazin 0.064 lb ai/acre)
Experimental: as §1, §2, §3
Applicants used the widely accepted fraction method for determining synergy. The fraction method involves not merely adding together the individual control percentages together, as that will often be greater than 100%. The fraction method involves taking the control as a decimal value (X), multiplying the 1 minus X values together, then taking the “1 minus” value to get the calculated control as a decimal value. For example, if two products give 60% control, the additive or predicted value would be 84% and not 120%. See Rao, V. S., Principles of Weed Science, Second Edition, (2000) 351-352, and the illustrative example below.

Large Crabgrass = assay: Field test, post emergence weed control: Large Crabgrass; type: in vivo, Digitaria sanguinalis; details: 11 DAT, MSO 1% v/v
Experimental: as §1, §2, §3

Palmer Amaranth = assay: Field test, post emergence weed control: Palmer Amaranth; type: in vivo, Amaranthus palmeri; details: 12 DAT, MSO 1% v/v
Experimental: as §1, §2, §3

Broadleaf Signalgrass = assay: Field test, post emergence weed control: Broadleaf Signalgrass; type: in vivo, Brachiaria platyhylla; details: 12 DAT, MSO 1% v/v
Experimental: as §1, §2, §3

Eclipta = assay: Field test, post emergence weed control: Eclipta; type: in vivo, Eclipta prostrata; details: 12 DAT, MSO 1% v/v
Experimental: as §1, §2, §3

[1] = no saflufenacil, flumioxazin 0.064 lb ai/acre, 2,4-D 0.5 lb ai/acre
[2] = saflufenacil 0.011 lb ai/acre (flumioxazin 0.064, 2,4-D 0.5 lb ai/acre where in the treatment)
[3] = saflufenacil 0.017 lb ai/acre (flumioxazin 0.064, 2,4-D 0.5 lb ai/acre where in the treatment)
[4] = saflufenacil 0.022 lb ai/acre (flumioxazin 0.064, 2,4-D 0.5 lb ai/acre where in the treatment)

## O=C(O)COc1ccc(Cl)cc1Cl [2,4-D, 2,4-Dichlorophenoxyacetic acid]
Yellow Nutsedge; [1]
  Effect on Weeds, Plants: Yellow Nutsedge: 8.3
Common Barnyardgrass; [1]
  Effect on Weeds, Plants: Common Barnyardgrass: 15.0
Horseweed; [1]
  Effect on Weeds, Plants: Horseweed: 11.7
Horseweed
  control (Actual % Control): 12%
  % Alone: 12.00%
Large Crabgrass; [1]
  Effect on Weeds, Plants: Large Crabgrass: 50.0
Palmer Amaranth; [1]
  Effect on Weeds, Plants: Palmer Amaranth: 91.0
Broadleaf Signalgrass; [1]
  Effect on Weeds, Plants: Broadle Signalgrass: 21.7
Eclipta; [1]
  Effect on Weeds, Plants: Eclipta: 91.0

## C#CCN1C(=O)COc2cc(F)c(N3C(=O)C4=C(CCCC4)C3=O)cc21 [Flumioxazin, 2-[7-fluoro-3,4-dihydro-3-oxo-4-(2-propynyl)-2H-1,4-benzoxazin-6-yl]-4,5,6,7-tetrahydro-1H-isoindole-1,3(2H)-dione]
Yellow Nutsedge; [1]
  Effect on Weeds, Plants: Yellow Nutsedge: 42.5
Common Barnyardgrass; [1]
  Effect on Weeds, Plants: Common Barnyardgrass: 45.0
Horseweed; [1]
  Effect on Weeds, Plants: Horseweed: 15.0
Horseweed
  control (Actual % Control): 15%
  % Alone: 15.00%
Large Crabgrass; [1]
  Effect on Weeds, Plants: Large Crabgrass: 70.0
Palmer Amaranth; [1]
  Effect on Weeds, Plants: Palmer Amaranth: 96.0
Broadleaf Signalgrass; [1]
  Effect on Weeds, Plants: Broadle Signalgrass: 45.0
Eclipta; [1]
  Effect on Weeds, Plants: Eclipta: 86.3

## CC(C)N(C)S(=O)(=O)NCc1cc(-n2c(=O)cc(C(F)(F)F)n(C)c2=O)c(F)cc1Cl [S, N′-[2-chloro-4-fluoro-5-(3-methyl-2,6-dioxo-4-(trifluoromethyl)-3,6-dihydro-1(2H)-pyrimidinyl)benzyl]-N-isopropyl-N-methylsulfamide]
Yellow Nutsedge; [2]
  Effect on Weeds, Plants: Yellow Nutsedge: 23.3
Yellow Nutsedge; [3]
  Effect on Weeds, Plants: Yellow Nutsedge: 35.0
Yellow Nutsedge; [4]
  Effect on Weeds, Plants: Yellow Nutsedge: 30.0
Common Barnyardgrass; [2]
  Effect on Weeds, Plants: Common Barnyardgrass: 31.7
Common Barnyardgrass; [3]
  Effect on Weeds, Plants: Common Barnyardgrass: 41.7
Common Barnyardgrass; [4]
  Effect on Weeds, Plants: Common Barnyardgrass: 25.0
Horseweed; [2]
  Effect on Weeds, Plants: Horseweed: 66.7
Horseweed; [3]
  Effect on Weeds, Plants: Horseweed: 78.3
Horseweed; [4]
  Effect on Weeds, Plants: Horseweed: 86.7
Horseweed
  control (Actual % Control): 67%
  % Alone: 67.00%
Large Crabgrass; [2]
  Effect on Weeds, Plants: Large Crabgrass: 43.3
Large Crabgrass; [3]
  Effect on Weeds, Plants: Large Crabgrass: 60.0
Large Crabgrass; [4]
  Effect on Weeds, Plants: Large Crabgrass: 56.7
Palmer Amaranth; [2]
  Effect on Weeds, Plants: Palmer Amaranth: 91.0
Palmer Amaranth; [3]
  Effect on Weeds, Plants: Palmer Amaranth: 91.3
Palmer Amaranth; [4]
  Effect on Weeds, Plants: Palmer Amaranth: 96.0
Broadleaf Signalgrass; [2]
  Effect on Weeds, Plants: Broadle Signalgrass: 31.7
Broadleaf Signalgrass; [3]
  Effect on Weeds, Plants: Broadle Signalgrass: 45.0
Broadleaf Signalgrass; [4]
  Effect on Weeds, Plants: Broadle Signalgrass: 31.7
Eclipta; [2]
  Effect on Weeds, Plants: Eclipta: 83.0
Eclipta; [3]
  Effect on Weeds, Plants: Eclipta: 91.3
Eclipta; [4]
  Effect on Weeds, Plants: Eclipta: 93.0
